≈ marks a conversion by molar mass, not a printed value.
Tests used:
Assay in all cases: In vitro antibacterial activity, Mueller-Hinton agar dilution
Type in all cases: cell-based
[1] = test system: Staphylococcus aureus Smith; settings: read-out: Minimal Inhibitory Concentration
From the text: (§1) The results of this test on representative compounds of this invention appear in Table I.

Enterococcus OSU 75-1 = settings: OSU751, read-out: Minimal Inhibitory Concentration
From the text: as §1

[2] = test system: Bacillus subtilis ATCC 6633; settings: ATCC6633, read-out: Minimal Inhibitory Concentration
From the text: as §1

Candida albicans CA 300 = settings: CA300, read-out: Minimal Inhibitory Concentration
From the text: as §1

[3] = test system: Staphylococcus epidermidis ATCC 12228; settings: ATCC12228, read-out: Minimal Inhibitory Concentration
From the text: as §1

[4] = test system: Staphylococcus aureus LL No. 45; settings: LLNO.45, read-out: Minimal Inhibitory Concentration
From the text: as §1

Enterococcus SM 77-15 = settings: SM7715, read-out: Minimal Inhibitory Concentration
From the text: as §1

Escherichia coli 311 = settings: read-out: Minimal Inhibitory Concentration
From the text: as §1

Proteus morganii K79-25 = settings: Morganella morganii, K7925, read-out: Minimal Inhibitory Concentration
From the text: as §1

[5] = test system: Micrococcus lutea PC 1001; settings: PC1001, read-out: Minimal Inhibitory Concentration
From the text: as §1

[6] = test system: Staphylococcus aureus ATCC 25923; settings: ATCC25923, read-out: Minimal Inhibitory Concentration
From the text: as §1

[7] = test system: Streptococcus faecalis ATCC 29212; settings: Enterococcus faecalis, ATCC29212, read-out: Minimal Inhibitory Concentration
From the text: as §1

[8] = test system: Streptococcus sanguis G-9B (a); settings: read-out: Minimal Inhibitory Concentration
From the text: as §1

Serratia Tul 78-15 = settings: TUL7815, read-out: Minimal Inhibitory Concentration
From the text: as §1

[9] = test system: Staphylococcus aureus LL No. 14; settings: LLNO.14, read-out: Minimal Inhibitory Concentration
From the text: as §1

[10] = test system: Streptococcus mutans ATCC 27352-1; settings: ATCC27352, read-out: Minimal Inhibitory Concentration
From the text: as §1

Salmonella QHC 77-3 = settings: QHC773, read-out: Minimal Inhibitory Concentration
From the text: as §1

[11] = test system: Staphylococcus epidermidis CMC 83-56; settings: CMC8356, read-out: Minimal Inhibitory Concentration
From the text: as §1

Bacillus cereus LL No. 4 = settings: LLNO.4, read-out: Minimal Inhibitory Concentration
From the text: as §1

[12] = test system: Staphylococcus aureus LL No. 27; settings: LLNO.27, read-out: Minimal Inhibitory Concentration
From the text: as §1

[13] = test system: Pseudomonas aeruginosa ATCC 27853; settings: ATCC27853, read-out: Minimal Inhibitory Concentration
From the text: as §1

[14] = test system: Streptococcus mutans BHI (b); settings: read-out: Minimal Inhibitory Concentration
From the text: as §1

Klebsiella pneumoniae AD = settings: read-out: Minimal Inhibitory Concentration
From the text: as §1

Acinetobacter STFD 79-17 = settings: STFD7917, read-out: Minimal Inhibitory Concentration
From the text: as §1

[15] = test system: Enterobacter cloacae K79-16; settings: K7916, read-out: Minimal Inhibitory Concentration
From the text: as §1

Saccharomyces Y 15 = settings: Y15, read-out: Minimal Inhibitory Concentration
From the text: as §1

[16] = test system: Pseudomonas aeruginosa 12-4-4; settings: 1244, read-out: Minimal Inhibitory Concentration
From the text: as §1

[17] = test system: Citrobacter freundii K81-28; settings: K8128, read-out: Minimal Inhibitory Concentration
From the text: as §1

[18] = test system: Escherichia coli ATCC 25922; settings: ATCC25922, read-out: Minimal Inhibitory Concentration
From the text: as §1

[19] = test system: Mycobacterium smegmatis ATCC 607; settings: Mycolicibacterium smegmatis, ATCC607, read-out: Minimal Inhibitory Concentration
From the text: as §1

## CCOC(=O)c1csc(N[C@@H]2C(=O)N3C(C(=O)O)=C(COC(C)=O)CS[C@H]23)n1 [Example 2]
[1]
  MIC: 1 µg/mL (≈ 2.34 µM)
Enterococcus OSU 75-1
  MIC: 128 µg/mL (≈ 299 µM)
[2]
  MIC: 4 µg/mL (≈ 9.36 µM)
Candida albicans CA 300
  MIC: > 512 µg/mL
[3]
  MIC: 0.5 µg/mL (≈ 1.17 µM)
[4]
  MIC: 1 µg/mL (≈ 2.34 µM)
Enterococcus SM 77-15
  MIC: 128 µg/mL (≈ 299 µM)
Escherichia coli 311
  MIC: 512 µg/mL (≈ 1200 µM)
Proteus morganii K79-25
  MIC: > 512 µg/mL
[5]
  MIC: 4 µg/mL (≈ 9.36 µM)
[6]
  MIC: 1 µg/mL (≈ 2.34 µM)
[7]
  MIC: 128 µg/mL (≈ 299 µM)
[8]
  MIC: 4 µg/mL (≈ 9.36 µM)
Serratia Tul 78-15
  MIC: > 512 µg/mL
[9]
  MIC: 1 µg/mL (≈ 2.34 µM)
[10]
  MIC: ≤ 0.25 µg/mL
Salmonella QHC 77-3
  MIC: > 512 µg/mL
[11]
  MIC: 0.5 µg/mL (≈ 1.17 µM)
Bacillus cereus LL No. 4
  MIC: 64 µg/mL (≈ 150 µM)
[12]
  MIC: 4 µg/mL (≈ 9.36 µM)
[13]
  MIC: > 512 µg/mL
[14]
  MIC: ≤ 0.25 µg/mL
Klebsiella pneumoniae AD
  MIC: 512 µg/mL (≈ 1200 µM)
Acinetobacter STFD 79-17
  MIC: > 512 µg/mL
[15]
  MIC: > 512 µg/mL
Saccharomyces Y 15
  MIC: 128 µg/mL (≈ 299 µM)
[16]
  MIC: > 512 µg/mL
[17]
  MIC: 512 µg/mL (≈ 1200 µM)
[18]
  MIC: > 512 µg/mL
[19]
  MIC: 128 µg/mL (≈ 299 µM)

## CC(=O)OCC1=C(C(=O)O)N2C(=O)[C@@H](Nc3nc(-c4ccccc4)cs3)[C@H]2SC1 [Example 3, (6R-trans)-3-[(Acetyloxy)methyl]-8-oxo-7-[(4-phenyl-2-thiazolyl)amino]-5-thia-1-azabicyclo[4.2.0]oct-2-ene-2-carboxylic acid]
[1]
  MIC: 8 µg/mL (≈ 18.5 µM)
Enterococcus OSU 75-1
  MIC: 256 µg/mL (≈ 593 µM)
[2]
  MIC: 8 µg/mL (≈ 18.5 µM)
Candida albicans CA 300
  MIC: > 512 µg/mL
[3]
  MIC: 16 µg/mL (≈ 37.1 µM)
[4]
  MIC: 4 µg/mL (≈ 9.27 µM)
Enterococcus SM 77-15
  MIC: 256 µg/mL (≈ 593 µM)
Escherichia coli 311
  MIC: > 512 µg/mL
Proteus morganii K79-25
  MIC: > 512 µg/mL
[5]
  MIC: 8 µg/mL (≈ 18.5 µM)
[6]
  MIC: 8 µg/mL (≈ 18.5 µM)
[7]
  MIC: 256 µg/mL (≈ 593 µM)
[8]
  MIC: 1 µg/mL (≈ 2.32 µM)
Serratia Tul 78-15
  MIC: > 512 µg/mL
[9]
  MIC: 4 µg/mL (≈ 9.27 µM)
[10]
  MIC: 8 µg/mL (≈ 18.5 µM)
Salmonella QHC 77-3
  MIC: > 512 µg/mL
[11]
  MIC: 8 µg/mL (≈ 18.5 µM)
Bacillus cereus LL No. 4
  MIC: 128 µg/mL (≈ 297 µM)
[12]
  MIC: 16 µg/mL (≈ 37.1 µM)
[13]
  MIC: > 512 µg/mL
[14]
  MIC: 0.5 µg/mL (≈ 1.16 µM)
Klebsiella pneumoniae AD
  MIC: > 512 µg/mL
Acinetobacter STFD 79-17
  MIC: > 512 µg/mL
[15]
  MIC: > 512 µg/mL
Saccharomyces Y 15
  MIC: 256 µg/mL (≈ 593 µM)
[16]
  MIC: > 512 µg/mL
[17]
  MIC: > 512 µg/mL
[18]
  MIC: > 512 µg/mL
[19]
  MIC: 256 µg/mL (≈ 593 µM)
